Values of other authors in US20040259834A1, “Therapeutic composition containing at least diflomotecan and capecitabine” (priority 2003, published 2004).

How the values were obtained:
various xenografts = various xenografts growing in nude mice
[1] = 7-membered β-hydroxylactone ring, more stable lactone form

plasma stability [1]: greater plasma stability
SMILES: CC[C@@]1(O)CC(=O)OCc2c1cc1n(c2=O)Cc2cc3cc(F)c(F)cc3nc2-1 [Diflomotecan]
activity against xenografts (various xenografts): excellent activity
